Source: US12662479B2 (Foghorn Therapeutics Inc., priority 2020, dated 2026)

Experiments:
[1] = biological target: T1, HiBit-BRM fusion protein (Homo sapiens, UniProt P51531); test: HiBiT-BRM cell-based degradation assay (Nano-Glo HiBiT Lytic Detection, 24 h); settings: HeLa cells expressing HiBiT-BRM; for DC50: read-out: BRM HiBit Degradation IC50; for BRM HiBit Degradation Maximum measured: top dose 30 μM
T1 construct: expressed in transfected cells
Outline: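 Luminescence from reconstituted NanoBiT luciferase in lysed HeLa HiBiT-BRM cells served as the measure of remaining BRM after 24 h treatment. Compounds were tested from 30 μM final downward in 3-fold steps. DMSO and 2 μM of a standard BRM/BRG1 degrader defined the scale limits.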

[2] = biological target: T2, HiBit-BRG1 fusion protein (Homo sapiens, UniProt P51532); test: HiBiT-BRG1 cell-based degradation assay (Nano-Glo HiBiT Lytic Detection, 24 h); settings: HeLa cells expressing HiBit-BRG1 and LgBit; for DC50: read-out: BRG1 HiBit Degradation IC50; for Dmax: HeLa, top dose 30 μM, read-out: BRG1 HiBit Degradation Maximum measured
T2 construct: expressed in transfected cells
Outline: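 Stable HeLa line expressing HiBiT-BRG1 and LgBiT, seeded at 5000 cells/well; luminescence read after lytic Nano-Glo HiBiT reagent and 10 min shaking at RT. % degradation normalised between DMSO (high control) and 2 μM reference BRM/BRG1 degrader (low control).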

T2 sequence (P51532 whole entry, the tested form may be a part): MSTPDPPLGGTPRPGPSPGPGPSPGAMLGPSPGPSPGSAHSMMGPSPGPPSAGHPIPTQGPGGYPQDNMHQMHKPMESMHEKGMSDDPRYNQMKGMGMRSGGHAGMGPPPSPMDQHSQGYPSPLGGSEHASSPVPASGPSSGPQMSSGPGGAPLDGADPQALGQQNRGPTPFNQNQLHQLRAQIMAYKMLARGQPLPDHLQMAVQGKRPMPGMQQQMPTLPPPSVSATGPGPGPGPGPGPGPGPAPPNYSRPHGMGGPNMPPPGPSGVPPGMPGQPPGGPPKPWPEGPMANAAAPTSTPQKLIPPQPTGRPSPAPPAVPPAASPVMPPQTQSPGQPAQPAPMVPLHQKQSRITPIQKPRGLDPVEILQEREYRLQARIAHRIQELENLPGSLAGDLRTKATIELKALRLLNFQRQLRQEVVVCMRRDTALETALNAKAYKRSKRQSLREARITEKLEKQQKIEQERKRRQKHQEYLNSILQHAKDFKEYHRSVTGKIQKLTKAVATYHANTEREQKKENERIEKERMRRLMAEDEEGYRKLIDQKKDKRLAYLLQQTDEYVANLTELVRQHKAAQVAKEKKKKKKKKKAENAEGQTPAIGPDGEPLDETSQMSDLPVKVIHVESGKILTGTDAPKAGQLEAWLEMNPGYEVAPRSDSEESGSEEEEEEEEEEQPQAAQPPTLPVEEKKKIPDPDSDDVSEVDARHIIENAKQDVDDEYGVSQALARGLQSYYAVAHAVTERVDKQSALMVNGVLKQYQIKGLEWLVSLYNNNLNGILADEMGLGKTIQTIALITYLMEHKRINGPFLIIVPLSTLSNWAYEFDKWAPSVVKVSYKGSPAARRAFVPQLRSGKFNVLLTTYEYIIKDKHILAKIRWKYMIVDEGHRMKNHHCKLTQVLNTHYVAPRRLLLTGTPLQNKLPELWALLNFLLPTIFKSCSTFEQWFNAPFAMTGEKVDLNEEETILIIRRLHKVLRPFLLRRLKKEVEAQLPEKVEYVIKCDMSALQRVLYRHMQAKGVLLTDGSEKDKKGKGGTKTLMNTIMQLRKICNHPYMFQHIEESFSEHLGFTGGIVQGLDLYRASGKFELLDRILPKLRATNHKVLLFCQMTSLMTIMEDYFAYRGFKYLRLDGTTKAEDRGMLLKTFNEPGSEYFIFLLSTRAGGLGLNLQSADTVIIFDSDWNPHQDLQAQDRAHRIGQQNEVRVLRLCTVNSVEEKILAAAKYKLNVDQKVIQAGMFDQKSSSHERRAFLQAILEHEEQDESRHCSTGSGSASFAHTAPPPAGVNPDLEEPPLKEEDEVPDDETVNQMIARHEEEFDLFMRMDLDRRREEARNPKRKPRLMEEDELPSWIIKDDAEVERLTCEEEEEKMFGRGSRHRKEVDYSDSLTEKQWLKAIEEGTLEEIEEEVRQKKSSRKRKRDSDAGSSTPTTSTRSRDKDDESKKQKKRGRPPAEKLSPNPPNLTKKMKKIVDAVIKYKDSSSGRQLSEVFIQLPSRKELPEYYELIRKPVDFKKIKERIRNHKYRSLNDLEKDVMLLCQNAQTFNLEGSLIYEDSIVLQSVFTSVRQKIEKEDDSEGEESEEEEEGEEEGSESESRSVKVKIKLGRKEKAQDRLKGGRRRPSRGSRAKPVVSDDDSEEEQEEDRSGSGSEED
T1 sequence (P51531 whole entry, the tested form may be a part): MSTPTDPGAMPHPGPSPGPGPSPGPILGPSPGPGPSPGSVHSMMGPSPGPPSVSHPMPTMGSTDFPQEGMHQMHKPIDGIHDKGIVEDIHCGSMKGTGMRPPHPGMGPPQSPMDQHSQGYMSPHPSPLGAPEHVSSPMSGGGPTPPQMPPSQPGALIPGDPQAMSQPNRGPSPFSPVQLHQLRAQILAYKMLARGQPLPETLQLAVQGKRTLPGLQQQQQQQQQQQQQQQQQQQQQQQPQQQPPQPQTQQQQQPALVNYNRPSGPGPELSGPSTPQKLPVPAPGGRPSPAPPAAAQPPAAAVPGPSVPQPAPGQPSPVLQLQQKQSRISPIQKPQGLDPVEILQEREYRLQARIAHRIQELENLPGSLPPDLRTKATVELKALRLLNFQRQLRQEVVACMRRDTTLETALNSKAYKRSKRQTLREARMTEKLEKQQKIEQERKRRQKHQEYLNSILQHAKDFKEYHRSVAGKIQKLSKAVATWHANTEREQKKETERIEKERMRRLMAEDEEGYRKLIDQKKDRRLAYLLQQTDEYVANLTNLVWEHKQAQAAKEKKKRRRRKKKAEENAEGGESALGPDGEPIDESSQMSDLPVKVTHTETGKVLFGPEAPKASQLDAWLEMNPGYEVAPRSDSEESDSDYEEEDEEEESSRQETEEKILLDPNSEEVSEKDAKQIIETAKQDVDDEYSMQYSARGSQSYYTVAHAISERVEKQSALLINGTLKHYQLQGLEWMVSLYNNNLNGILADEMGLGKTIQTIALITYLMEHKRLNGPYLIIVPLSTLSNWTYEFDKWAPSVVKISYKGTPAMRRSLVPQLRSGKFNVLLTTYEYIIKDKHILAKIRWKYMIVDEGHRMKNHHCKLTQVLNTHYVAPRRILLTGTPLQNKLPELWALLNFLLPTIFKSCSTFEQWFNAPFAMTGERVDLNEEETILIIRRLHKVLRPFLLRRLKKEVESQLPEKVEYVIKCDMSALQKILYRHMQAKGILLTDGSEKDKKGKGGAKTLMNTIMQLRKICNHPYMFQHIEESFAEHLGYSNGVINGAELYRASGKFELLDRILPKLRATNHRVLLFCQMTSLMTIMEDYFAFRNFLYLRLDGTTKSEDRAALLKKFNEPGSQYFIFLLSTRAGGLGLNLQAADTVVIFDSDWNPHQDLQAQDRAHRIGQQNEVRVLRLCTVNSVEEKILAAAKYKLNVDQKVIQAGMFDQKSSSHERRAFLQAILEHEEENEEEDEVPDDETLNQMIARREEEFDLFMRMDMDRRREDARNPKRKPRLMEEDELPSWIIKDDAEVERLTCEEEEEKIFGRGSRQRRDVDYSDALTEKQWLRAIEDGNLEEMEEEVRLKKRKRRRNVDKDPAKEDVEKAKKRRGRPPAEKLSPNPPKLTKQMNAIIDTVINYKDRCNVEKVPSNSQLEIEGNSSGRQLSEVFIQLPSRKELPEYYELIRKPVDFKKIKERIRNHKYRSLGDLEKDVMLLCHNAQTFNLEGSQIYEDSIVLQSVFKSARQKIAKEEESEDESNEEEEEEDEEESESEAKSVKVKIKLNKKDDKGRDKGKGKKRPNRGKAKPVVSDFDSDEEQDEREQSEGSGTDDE

SMILES | DC50 [1] [µM] | BRM HiBit Degradation Maximum measured [1] | DC50 [2] [µM] | Dmax [2] [%]
CS(=O)(=O)n1ccc(C(=O)NCC(=O)Nc2nc(-c3cccc(-c4ccnc(C5(C(=O)N6CC(CCOc7cccc8c7C(=O)N(C7CCC(=O)NC7=O)C8=O)C6)CC5)c4)c3)cs2)c1 (centres unmarked) [Compound 136, N-[4-[3-(2-[1-[3-(2-[[2-(2,6-dioxopiperidin-3-yl)-1,3-dioxoisoindol-4-yl]oxy]ethyl)azetidine-1-carbonyl]cyclopropyl]pyridin-4-yl)phenyl]-1,3-thiazol-2-yl]-2-[(1-methanesulfonylpyrrol-3-yl)formamido]acetamide] | > 10 | C (‘C’ = Maximum degradation <50%) | > 10 | < 50
Cc1ncsc1-c1ccc(CNC(=O)[C@@H]2C[C@@H](O)CN2C(=O)[C@@H](NC(=O)CCCCC(=O)NCCCC[C@H](NC(=O)c2ccn(S(C)(=O)=O)c2)C(=O)Nc2nc(-c3ccccc3)cs2)C(C)(C)C)cc1 [Compound 264, N-[(2S)-1-[(2S,4R)-4-hydroxy-2-([[4-(4-methyl-1,3-thiazol-5-yl)phenyl]methyl]carbamoyl)pyrrolidin-1-yl]-3,3-dimethyl-1-oxobutan-2-yl]-N-[(5S)-5-[(1-methanesulfonylpyrrol-3-yl)formamido]-5-[(4-phenyl-1,3-thiazol-2-yl)carbamoyl]pentyl]hexanediamide] | > 10 | C (‘C’ = Maximum degradation <50%) | > 10 | < 50
CS(=O)(=O)n1ccc(C(=O)N[C@@H](CCOCCCC(=O)N2CC(COc3cccc4c3C(=O)N(C3CCC(=O)NC3=O)C4=O)C2)C(=O)Nc2nc(-c3ccccc3)cs2)c1 (stereo partly drawn) [Compound 259, (2S)-4-[4-[3-([[2-(2,6-dioxopiperidin-3-yl)-1,3-dioxoisoindol-4-yl]oxy]methyl)azetidin-1-yl]-4-oxobutoxy]-2-[(1-methanesulfonylpyrrol-3-yl)formamido]-N-(4-phenyl-1,3-thiazol-2-yl)butanamide] | > 10 | C (‘C’ = Maximum degradation <50%) | > 10 | < 50
Cc1ncsc1-c1ccc(CNC(=O)[C@@H]2C[C@@H](O)CN2C(=O)[C@@H](NC(=O)COCC(=O)NCc2cccc(-c3cccc(-c4csc(NC(=O)CNC(=O)c5ccn(S(C)(=O)=O)c5)n4)c3)c2)C(C)(C)C)cc1 [Compound 18, N-[2-[[4-[3-[3-[[[2-[2-[[(1S)-1-[(2S,4R)-4-hydroxy-2-[[4-(4-methylthiazol-5-yl)phenyl]methylcarbamoyl]pyrrolidine-1-carbonyl]-2,2-dimethyl-propyl]amino]-2-oxo-ethoxy]acetyl]amino]methyl]-phenyl]phenyl]thiazol-2-yl]amino]-2-oxo-ethyl]-1-methylsulfonyl-pyrrole-3-carboxamide] | > 10 | C (‘C’ = Maximum degradation <50%) | > 10 | < 50
Cc1ncsc1-c1ccc(CNC(=O)[C@@H]2C[C@@H](O)CN2C(=O)[C@@H](NC(=O)COCCOCCNC(=O)CN(C)c2cc(-c3cccc(-c4csc(NC(=O)CNC(=O)c5ccn(S(C)(=O)=O)c5)n4)c3)ccn2)C(C)(C)C)cc1 [Compound 94, N-(2-((4-(3-(2-(((S)-13-((2S,4R)-4-hydroxy-2-((4-(4-methylthiazol-5-yl)benzyl)carbamoyl)pyrrolidine-1-carbonyl)-14,14-dimethyl-2,11-dioxo-6,9-dioxa-3,12-diazapentadecyl)(methyl)amino)-pyridin-4-yl)phenyl)thiazol-2-yl)amino)-2-oxoethyl)-1-(methylsulfonyl)-1H-pyrrole-3-carboxamide] | > 10 | C (‘C’ = Maximum degradation <50%) | > 10 | < 50
